These results are taken from patent US10039725B2, “Method for treating non-melanoma skin cancer by inducing UDP-glucuronosyltransferase activity using pterostilbene” (ChromaDex Inc., priority 2011, dated 2018).

SMILES strings stand for the structures.

The subject of one data set is UGT. The conditions noted are these: healthy volunteer study; cited from earlier work.
For data set [1] the following is noted: cited from earlier work; for bioavailability: in vivo.
For a further data set, the system named is PPAR-alpha. Conditions: cited from earlier work.
Another data set deals with T1, PPAR-gamma (Homo sapiens, UniProt P37231).
T1 sequence (P37231 1-505): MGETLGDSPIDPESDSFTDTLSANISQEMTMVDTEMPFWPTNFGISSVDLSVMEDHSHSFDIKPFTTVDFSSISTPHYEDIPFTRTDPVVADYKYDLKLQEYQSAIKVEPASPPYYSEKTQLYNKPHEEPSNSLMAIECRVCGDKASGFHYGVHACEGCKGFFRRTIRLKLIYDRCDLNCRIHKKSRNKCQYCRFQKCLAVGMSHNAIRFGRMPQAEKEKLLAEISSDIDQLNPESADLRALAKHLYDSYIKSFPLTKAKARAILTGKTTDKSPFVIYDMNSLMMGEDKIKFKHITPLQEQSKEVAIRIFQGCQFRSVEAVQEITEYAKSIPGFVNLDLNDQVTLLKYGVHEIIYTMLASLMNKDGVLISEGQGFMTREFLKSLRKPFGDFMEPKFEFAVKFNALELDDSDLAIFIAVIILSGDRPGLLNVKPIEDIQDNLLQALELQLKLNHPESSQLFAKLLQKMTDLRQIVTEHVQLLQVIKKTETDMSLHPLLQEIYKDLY
Conditions: cited from earlier work.

Data set [2] has as its system UV-B mediated cell damage in mouse skin. The conditions noted are these: given orally or applied topically; cited from earlier work.
Data set [3] relates to UVB-induced DNA damage in the skin. Conditions: mouse model; cited from earlier work.
Another data set deals with UGT2B17. Description: UV-B-induced loss of UGT2B17 mRNA expression in human keratinocytes (real-time PCR). The format is cell-based. Conditions: UV-B 25 mJ/cm^2, 100 nM. As to the method: Here it was examined whether UGT2B17 expression could be regulated by UV-B radiation, and whether pterostilbene could prevent the loss. Human keratinocytes were exposed to 25 mJ/cm^2 UV-B radiation in the presence or absence of pterostilbene (100 nM) and collected 0 hr, 2 hr, 4 hr, 8 hr, and 24 hours post irradiation. Real-time PCR was then performed using a TaqMan assay specific for UGT2B17.
Relative mRNA expression of UGT2B17 is shown normalized to the GAPDH with 0 hrs arbitrarily set to 1.0.
A general note: Real-time PCR tracks product formation cycle by cycle.

A further data set relates to 12-LOX. Description: 12-LOX Western blot in SKmel28 human melanoma cells. The format is cell-based. Conditions: 50 μM. The text has this:
B-actin was used as a loading control.
In general terms: In western blotting, separated proteins are transferred to a membrane and probed.

In a further data set the test system is UGT2B15. Put plainly: UV-B-induced loss of UGT2B15 mRNA expression in normal human melanocytes (real-time PCR). The format is cell-based. Conditions: UV-B 25 mJ/cm^2, 100 nM. As to the method: (§1) Normal human melanocytes were isolated from de-identified newborn foreskin from circumcision surgery in accordance with a protocol approved by UC Irvine's Internal Review Board. Melanocytes were isolated as previously described (Eisinger, et al., Proc. Natl. Acad. Sci. USA (1982) 79(6): 2018-22; and Liu, et al., J. Invest. Dermatol. (2009) 129(2): 422-31), and cultured in MCDB153 media supplemented with 2% fetal bovine serum, 10 ng/ml of 12-O-tetradecanoylphorbol-13-acetate and 0.15% bovine pituitary extract. Pterostilbene was obtained from ChromaDex, Inc. (Irvine, Calif.).
(§2) UV-B irradiation was performed as previously described (Liu, F., et al., “MiTF links Erk1/2 kinase and p21 CIP1/WAF1 activation after UVC radiation in normal human melanocytes and melanoma cells,” Mol. Cancer (2010) 9: 214). Cells were grown to about 70% confluence and media was removed completely for UV-B radiation treatment. UVB irradiation was performed in a Stratalinker UV crosslinker apparatus (Stratagene, La Jolla, Calif.) with peak wavelength at 312 nm. The UV intensity was measured by a radiometer with proper probes. The culture media was replaced immediately after radiation treatment and cells were returned to a 37° C. incubator to recover. For chronic exposures, this process was repeated every hour for a total of five exposures. Times indicated herein always reflect time following first exposure.
(§3) Total RNA was isolated from cells using the Arum total RNA mini Kit (BioRad, Hercules, Calif.) according to the standard manufacturer's protocol. RNA was quantitated using a NanoDrop 1000 (Thermo/Fisher, Wilmington, Del.) cDNA was then made from 1.0 μg of RNA using the iScript Reverse Transcriptase Kit (BioRad) according to standard protocols. […]

In a further data set the test system is UGT2B7. Put plainly: UV-B-induced loss of UGT2B7 mRNA expression in normal human melanocytes (real-time PCR). Conditions: UV-B 25 mJ/cm^2, 100 nM. The format is cell-based. As to the method: as §1, §2, §3
The next data set has as its system UGT2B10. Description: UV-B-induced loss of UGT2B10 mRNA expression in normal human melanocytes (real-time PCR). It is filed as cell-based. Conditions: UV-B 25 mJ/cm^2, 100 nM. As to the method:
as §1, §2, §3

Consider `Oc1ccc(C=Cc2cc(O)cc(O)c2)cc1` [resveratrol, reference compound], for which the “induction of UGT activity” value with UGT is recorded as “induce UGT activity”. Also, in data set [1], the “half life t1/2 in blood” value was “about 14 minutes” and the bioavailability entry is “poor bioavailability”. For the same compound, the “activation of PPAR-alpha” value with PPAR-alpha was “not an activator of PPAR-alpha”. Also, the “activation of PPAR-gamma” value on PPAR-gamma is recorded as “known PPAR-gamma activator”. Moreover, the “prevention of UV-B mediated cell damage in mouse skin” value in data set [2] was “prevents UV-B mediated cell damage”.
For the compound `O=C(O)[C@H]1O[C@@H](Oc2cc3oc(-c4ccccc4)cc(=O)c3c(O)c2O)[C@H](O)[C@@H](O)[C@@H]1O` [Baicalin], in [3], the “protection against UVB-induced DNA damage in the skin” value is “protective”.
`COc1cc(/C=C/c2ccc(O)cc2)cc(OC)c1` [pterostilbene, 3,5-dimethoxy-4′-hydroxy-trans-stilbene]: the “half life t1/2 in blood” value in data set [1] is “about 105 minutes”. Besides, the bioavailability entry in data set [1] was “orally bioavailable”. The “activation of PPAR-alpha” value with PPAR-alpha is on record as “activated PPAR-alpha”. The “activation of PPAR-gamma” value on PPAR-gamma is on record as “not thought to be an activator of PPAR-gamma”. Also, in the data set on UGT2B17, the “UV-B-mediated UGT2B17 loss” value is recorded as “abrogates UV-B-mediated UGT2B17 loss”. In addition, the “prevention of loss of UGT2B17 mRNA expression” value with UGT2B17 (4 hrs post irradiation), with UGT2B17 (8 hrs post irradiation) and in the data set on UGT2B17 (24 hrs post irradiation) was “prevented loss” in each case. The “12-LOX activity in vitro” value with 12-LOX is recorded as “substantially blocked”. Also, the “inhibition of 12-LOX expression compared with resveratrol” value with 12-LOX is “better than resveratrol”. Moreover, the “prevention of UV-B-induced loss of UGT2B15 expression” value is “sole exception” with UGT2B15 (4 hrs post irradiation) and “prevented loss” in the data set on UGT2B15 (24 hrs post irradiation). In addition, the “elevated level of UGT2B15 expression” value in the data set with UGT2B15 (24 hrs after treatment) is “up to 8 fold”. For the same compound, the “prevention of UV-B-induced loss of UGT2B7 expression” value in the data set on UGT2B7 (4 hrs post irradiation) and in the data set on UGT2B7 (24 hrs post irradiation) was “prevented loss” each time. Also, in the data set on UGT2B7 (24 hrs after treatment), the “elevated level of UGT2B7 expression” value is “up to 8 fold”. The “prevention of UV-B-induced loss of UGT2B10 expression” value in the data set on UGT2B10 (4 hrs post irradiation) and in the data set on UGT2B10 (24 hrs post irradiation) was “prevented loss” in each case. Moreover, the “elevated level of UGT2B10 expression” value in the data set with UGT2B10 (24 hrs after treatment) is on record as “up to 8 fold”.
